In patent US12485096B2 (CHENLAND NUTRITIONALS, INC., priority 2020, dated 2025):

Legend:
[1] = Dispersion in water (photographs, FIG. 1); format: physicochemical
[2] = test system: Caco-2 cells, HT-29 cells and Raji-B cells; assay: Cell uptake of curcumin in three-cell model, flow cytometry; conditions: curcumin 20 μg/mL, 4 hours; verapamil 300 μg/mL, sodium azide 1 mg/mL, ketoconazole 10 μg/mL

With `COc1cc(/C=C/C(=O)CC(=O)/C=C/c2ccc(O)c(OC)c2)ccc1O` [Curcumin raw material, Curcumin] the “dispersion in water (in words)” value [1] was “insoluble in water” and the “average value (intake of curcumin by cells, fluorescence)” value [2] was 19.4.
